Measurements as given in patent US20110045101A1, “FUNGICIDAL SUBSTITUTED AZOLES” (E.I. Du Pont De Nemours and Company, priority 2009, published 2011).
Where two headings read alike, the source gives them in different places.

Key:
Plasmopara viticola = assay: Test A: grape downy mildew, test suspension sprayed after inoculation of grape seedlings, visual disease rating; type: in vivo; conditions: 200 ppm, 100 = 100% disease control
Excerpt: General protocol for preparing test suspensions for Tests A-J: The test compounds were first dissolved in acetone in an amount equal to 3% of the final volume and then suspended at the desired concentration (in ppm) in acetone and purified water (50/50 mix) containing 250 ppm of the surfactant Trem® 014 (polyhydric alcohol esters). The resulting test suspensions were then used in tests A-J. Spraying a 200 ppm test suspension to the point of run-off on the test plants was the equivalent of a rate of 500 g/ha. […] Grape seedlings were inoculated with a spore suspension of Plasmopara viticola (the causal agent of grape downy mildew) and incubated in a saturated atmosphere at 20° C. for 24 h. After a short drying period, the grape seedlings were sprayed with the test suspension to the point of run-off and then moved to a growth chamber at 20° C. for 5 days, after which time the grape seedlings were placed back into a saturated atmosphere at 20° C. for 24 h. Upon removal, visual disease ratings were made. […] A dash (-) indicates no test results.

Rhizoctonia solani = assay: Test B: turf brown patch on bentgrass seedlings, sprayed the day before inoculation, visual disease rating; type: in vivo; conditions: 200 ppm, 100 = 100% disease control
Excerpt: General protocol for preparing test suspensions for Tests A-J: The test compounds were first dissolved in acetone in an amount equal to 3% of the final volume and then suspended at the desired concentration (in ppm) in acetone and purified water (50/50 mix) containing 250 ppm of the surfactant Trem® 014 (polyhydric alcohol esters). The resulting test suspensions were then used in tests A-J. Spraying a 200 ppm test suspension to the point of run-off on the test plants was the equivalent of a rate of 500 g/ha. […] The test suspension was sprayed to the point of run-off on bentgrass (Agrostis sp.) seedlings. […] A dash (-) indicates no test results. All results are for 200 ppm except where followed by “*”, which indicates 40 ppm.

Botrytis cinerea = assay: Test C: tomato Botrytis on tomato seedlings, sprayed the day before inoculation, visual disease rating; type: in vivo; conditions: 100 = 100% disease control; for pest or weed control at 200 ppm / Test C disease control rating: 200 ppm
Method in brief: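 Compounds were dissolved in acetone (3% of final volume), then suspended in 50/50 acetone/purified water containing 250 ppm polyhydric alcohol ester surfactant. Suspensions were sprayed to run-off on tomato seedlings at 200 ppm, equivalent to 500 g/ha, or at 40 ppm where marked.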

Alternaria solani = assay: Test D: tomato early blight, sprayed the day before inoculation, visual disease rating; type: in vivo; conditions: 100 = 100% disease control; for pest or weed control at 200 ppm / Test D disease control rating: 200 ppm
Method in brief: (§1)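 Compounds were dissolved in acetone (3% of final volume), then suspended in 50/50 acetone/purified water with 250 ppm Trem® 014 surfactant. Suspensions at 200 ppm (some at 40 ppm) were sprayed to run-off, 200 ppm being equivalent to 500 g/ha.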

Phytophthora infestans = type: in vivo; conditions: 200 ppm, 100 = 100% disease control
Septoria nodorum = assay: Test F: wheat glume blotch on wheat seedlings, sprayed the day before inoculation, visual disease rating; type: in vivo; conditions: 100 = 100% disease control; for pest or weed control at 200 ppm / Test F disease control rating: 200 ppm
Method in brief: as §1

Septoria tritici = assay: Test G: wheat leaf blotch on wheat seedlings, sprayed the day before inoculation, visual disease rating; type: in vivo; conditions: 100 = 100% disease control; for pest or weed control at 200 ppm / Test G disease control rating: 200 ppm
Method in brief: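 Spray to run-off, 200 ppm (≈500 g/ha; starred = 40 ppm), acetone/water 50/50 + 250 ppm Trem® 014. Spore inoculation +1 d. 24° C saturated 48 h → 20° C 19 d. Visual rating.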

[1] = test system: Puccinia recondita f. sp. tritici; assay: Test I: wheat leaf rust on wheat seedlings, sprayed the day before inoculation, visual disease rating; type: in vivo; conditions: 100 = 100% disease control; for pest or weed control at 200 ppm / Test I disease control rating: 200 ppm
Method in brief: as §1

[2] = test system: Erysiphe graminis f. sp. tritici; assay: Test J: wheat powdery mildew on wheat seedlings, sprayed the day before inoculation, visual disease rating; type: in vivo; conditions: 100 = 100% disease control; for pest or weed control at 200 ppm / Test J disease control rating: 200 ppm
Method in brief: as §1

[3] = 0 = no control relative to controls
[4] = Botrytis cinerea, 120 h, 0 = no control relative to controls
[5] = Alternaria solani, 168 h, 0 = no control relative to controls
[6] = Parastagonospora nodorum, 264 h, 0 = no control relative to controls
[7] = Zymoseptoria tritici, 504 h, 0 = no control relative to controls
[8] = Puccinia recondita, 168 h, 0 = no control relative to controls
[9] = Blumeria graminis, 168 h, 0 = no control relative to controls

Row | Molecule | Test A disease control rating (Plasmopara viticola; [3]) [%] | Test B disease control rating (Rhizoctonia solani; [3]) [%] | pest or weed control at 200 ppm (Botrytis cinerea; [4]) [%] | pest or weed control at 200 ppm (Alternaria solani; [5]) [%] | Test E disease control rating (Phytophthora infestans; [3]) [%] | pest or weed control at 200 ppm (Septoria nodorum; [6]) [%] | pest or weed control at 200 ppm (Septoria tritici; [7]) [%] | pest or weed control at 200 ppm [1, 8] [%] | pest or weed control at 200 ppm [2, 9] [%] | melting point [°C] | Test C disease control rating (Botrytis cinerea; [3]) [%] | Test D disease control rating (Alternaria solani; [3]) [%] | Test F disease control rating (Septoria nodorum; [3]) [%] | Test G disease control rating (Septoria tritici; [3]) [%] | Test I disease control rating [1, 3] [%] | Test J disease control rating [2, 3] [%] | also measured
1 | Fc1cc(F)c(-c2c(Cl)nc(Cl)n2-c2ccc(Cl)cc2)c(F)c1 [Compound 6, 2,4-dichloro-1-(4-chlorophenyl)-5-(2,4,6-trifluorophenyl)-1H-imidazole] | 0 | 99 | 99 | 100 | 0 | 95 | 100 | 100 | 100 | 112 to 119 |  |  |  |  |  |  | 
2 | Cc1nc(Cl)c(-c2ccc(F)cc2)n1-c1ccc(Cl)cc1 [Compound 5, 4-chloro-1-(4-chlorophenyl)-5-(4-fluorophenyl)-2-methyl-1H-imidazole] | 0 | 38 | 98 | 99 | 0 | 0 | 100 | 88 | 99 |  |  |  |  |  |  |  | 
3 | Fc1cccc(F)c1-c1c(Cl)nc(Cl)n1-c1ccc(Cl)cc1 [Compound 3, 2,4-dichloro-1-(4-chlorophenyl)-5-(2,6-difluorophenyl)-1H-imidazole] |  | 99 | 99 | 100 |  | 99 | 100 | 99 | 100 | 123 to 125 |  |  |  |  |  |  | 
4 | Fc1cc(F)c(-c2c(Cl)ncn2-c2ccc(Cl)cc2)c(F)c1 [Compound 1, 4-chloro-1-(4-chlorophenyl)-5-(2,4,6-trifluorophenyl)-1H-imidazole] |  |  |  |  |  |  |  |  |  | 102 to 104 |  |  |  |  |  |  | pest or weed control at 40 ppm (Botrytis cinerea; Botrytis cinerea, 120 h, 40 ppm (marked *)): 99%; pest or weed control at 40 ppm (Alternaria solani; Alternaria solani, 168 h, 40 ppm (marked *)): 94%; pest or weed control at 40 ppm (Septoria nodorum; Parastagonospora nodorum, 264 h, 40 ppm (marked *)): 0%; pest or weed control at 40 ppm (Septoria tritici; Zymoseptoria tritici, 504 h, 40 ppm (marked *)): 93%; pest or weed control at 40 ppm ([1]; Puccinia recondita, 168 h, 40 ppm (marked *)): 16%; pest or weed control at 40 ppm ([2]; Blumeria graminis, 168 h, 40 ppm (marked *)): 99%
5 | Cc1ccc(-n2cnc(Cl)c2-c2ccc(F)cc2Cl)cc1 [compound 179] |  |  |  |  |  |  |  |  |  |  |  |  |  |  |  |  | Test A disease control rating (Plasmopara viticola; 0 = no control): 0%; Test B disease control rating (Rhizoctonia solani; 0 = no control): 0%; Test C disease control rating (Botrytis cinerea; 0 = no control): 99%; Test D disease control rating (Alternaria solani; 0 = no control): 9%; Test E disease control rating (Phytophthora infestans; 0 = no control): 0%; Test F disease control rating (Septoria nodorum; 0 = no control): 0%; Test G disease control rating (Septoria tritici; 0 = no control): 98%; Test I disease control rating ([1]; 0 = no control): 99%; Test J disease control rating ([2]; 0 = no control): 99%
6 | Fc1cc(-n2cnc(Cl)c2-c2c(F)cccc2Cl)ccc1Cl [compound 192] |  |  |  |  |  |  |  |  |  |  |  |  |  |  |  |  | Test A disease control rating (Plasmopara viticola; 0 = no control): 0%; Test B disease control rating (Rhizoctonia solani; 0 = no control): 21%; Test C disease control rating (Botrytis cinerea; 0 = no control): 99%; Test D disease control rating (Alternaria solani; 0 = no control): 16%; Test E disease control rating (Phytophthora infestans; 0 = no control): 0%; Test F disease control rating (Septoria nodorum; 0 = no control): 0%; Test G disease control rating (Septoria tritici; 0 = no control): 94%; Test I disease control rating ([1]; 0 = no control): 84%; Test J disease control rating ([2]; 0 = no control): 99%
7 | COc1cc(F)c(-c2c(-c3ccc(Cl)cc3)c(OC)nn2C)c(F)c1 [compound 578] | 0 | 58 |  |  | 0 |  |  |  |  |  | 98 | 37 | 0 | 100 | 74 | 98 | 
8 | COc1cc(F)c(-c2c(-c3ccc(F)cc3)c(OC)nn2C)c(F)c1 [compound 579] | 0 | 92 |  |  | 0 |  |  |  |  |  | 99 | 97 | 0 | 100 | 93 | 100 | 
9 | Cc1nc(Cl)c(-c2c(F)cccc2F)n1-c1ccc(Cl)cc1 [Compound 2, 4-chloro-1-(4-chlorophenyl)-5-(2,6-difluorophenyl)-2-methyl-1H-imidazole] |  | 65 | 99 | 100 |  | 100 | 100 | 100 | 100 | 143 to 145 |  |  |  |  |  |  | 
10 | COc1ccc(-c2c(OC)nn(C)c2-c2c(F)cc(OC)cc2F)cc1 [compound 580] | 0 | 88 |  |  | 0 |  |  |  |  |  | 98 | 0 | 0 | 100 | 84 | 90 | 
11 | Cc1nn(C)c(-c2ccc(Cl)c(F)c2)c1-c1c(F)cccc1F [compound 67] | 7 | 98 |  |  | 0 |  |  |  |  |  | 44 | 99 | 0 | 80 | 0 | 99 | 
12 | 2-bromo-1-(4-chlorophenyl)-5-(2,6-difluorophenyl)-2-methyl-1H-imidazole [Compound 740] | 37 | 99 |  |  | 0 |  |  |  |  |  | 100 | 100 | 100 | 100 | 100 | 100 | 
13 | Cc1ncc(-c2ccc(F)cc2)n1-c1ccc(Cl)cc1 [Compound 4, 1-(4-chlorophenyl)-5-(4-fluorophenyl)-2-methyl-1H-imidazole] | 0 | 18 | 67 | 0 | 0 | 0 | 93 | 79 | 94 |  |  |  |  |  |  |  | 
